Literature values, collected in US20080268043A1, “Controlled Release Compositions Comprising an Antipsychotic Agent” (ELAN PHARMA INTERNATIONAL LIMITED, priority 2005, published 2008).

Conditions: within the proposed clinical dose range

For OCCOCCN1CCN(C2=Nc3ccccc3Sc3ccccc32)CC1 [quetiapine], the mean terminal half-life is given as “about 6 hours”.
